The numbers were not newly measured in publication PMC5061580 (Journal of biomolecular structure & dynamics, 2016), which cites them from elsewhere.

For series [1], the system named is Madin-Darby canine kidney cells (MDCK). To be noted: in vitro cell culture monolayers; ref Makagiansar et al., 2001.
A further series concerns blood-brain barrier. To be noted: in-situ rat brain perfusion; ref Kiptoo et al., 2011; On et al., 2014.

Consider Ac-SHAVSS-NH2 [HAV6], for which, in series [1], the “delivery of 14C-mannitol across MDCK monolayers” value was “enhances”. Besides, the “brain delivery of 14C-mannitol and 3H-daunomycin” value with blood-brain barrier was “increase the brain delivery”.
